According to patent US20120282237A1, “USE OF PROTEIN ARGININE METHYLTRANSFERASES IN REGULATING HEMATOPOIETIC DIFFERENTIATION” (priority 2011, published 2012):

Columns and labels:
K562 cells [1] = assay: Ara-C-induced erythroid differentiation of K562 cells, benzidine staining; format: cell-based, human
Description: Various K562 cell clones were treated with Ara-C (A, 1 μM) and sodium butyrate (B, 2 mM) for 96 hr, and measured by qualifying hemoglobin-positive cells with benzidine stain. […] All experiments were performed at least three times and data are presented as means±S.E.; *** p<0.005 as compared with K562 parental cells.
The methyltransferase inhibitor, adenosine dialdehyde (AdOx), was added 8 hours before Ara-C treatment. Inhibition of methylation suppressed Ara-C-induced erythroid differentiation (A). The enzymatically impaired mutant PRMT1G80R, when transiently expressed in K562 cells (B), lost the effect on both megakaryocyte (C) and erythroid (D) differentiations. […] All experiments were performed at least three times and data are presented as means±S.E.; *** p<0.005 as compared with K562 parental cells.
In order to test whether activity of PRMT1 participates in regulation of differentiation, adenosine dialdehyde (AdOx), an inhibitor of S-adenosylhomocysteine hydrolase, which indirectly suppresses methylation due to accumulation of products, was used to treat K562 cells. […] A single amino acid mutation (G80R) in the conserved SAM binding domain of PRMT1 with impaired methyltransferase activity (Kwak et al., Mol. Cell 2003, 11, 1055-1066), HA-PRMT1G80R, was transiently expressed in K562 cells (FIG. 5B).

K562 cells [2] = assay: PMA-induced megakaryocyte differentiation of K562 cells (modified Wright-Giemsa staining, adherent cells); format: cell-based, human; settings: PMA 40 nM
Description: For megakaryocyte differentiation, K562 cells were treated with 40 nM of PMA, (Sigma-Aldrich). Adherent cells with pseudopodia were examined by phase contrast light microscopy. For quantification, cells in suspension or loosely attached were first removed from the culture dish carefully, and adherent cells were then removed by trypsinization, collected, and counted. Cytological changes, including a multilobed nucleus and vacuolated cytoplasm, were examined by modified Wright-Giemsa staining. Three to four hundred cells were examined in each assay.
Megakaryopoiesis can be characterized by cytological changes and expression of lineage-specific markers such as CD41. […] In addition, we observed an increased number of adherent cells, about 30% at 96 hour (FIG. 2B, E3-6).

[3] = test system: human CD34+ hematopoietic cells; assay: TPO-induced megakaryocyte differentiation of CD34+ cells, CD41 expression by flow cytometry; format: cell-based; settings: TPO alone (100 ng/ml), day 15
Description: To analyze the megakaryocyte surface marker CD41, cells were first incubated in 2% bovine serum albumin for 30 min and then with fluorescein isothiocyanate (FITC)-conjugated anti-Plt-1 (CD41) antibodies (1:80, Beckman Coulter) in 1% bovine serum albumin for 30 min; cells were then analyzed by flow cytometry.
To investigate the effect of PRMT1 in more physiologically relevant conditions, TAT-HA-PRMT1 was introduced into human CD34^+ hematopoietic cells. CD34^+ cells were derived from human umbilical cord blood with consent from the mother and were collected and processed according to governmental regulations (“Guidelines for Collection and Use of Human Specimens for Research.” Department of Health, Taiwan). Isolation and expansion of CD34^+ cells were performed as described previously (Yao, et al., Stem Cells Dev. 2006, 15, 70-78).
Briefly, the CD34^+ cells were purified with CD34 microbeads by a Miltenyi VarioMACS device (Miltenyi Biotec) and cultivated in serum-free Iscove's modified Dulbecco's medium (IMDM) (HyClone) supplemented with serum substitutes (1.5 g/liter bovine serum albumin, 4.4 μg/ml insulin, 60 μg/ml transferrin, and 25.9 μM 2-mercaptoethanol) and a cytokine mixture (8.5 ng/ml TPO, 4.1 ng/ml interleukin-3, 15 ng/ml stem cell factor, 6.7 ng/ml flk2/flt3 ligand, 0.8 ng/ml interleukin-6, 3.2 ng/ml granulocyte colony-stimulating factor, and 1.3 ng/ml granulocyte-macrophage colony-stimulating factor) for 6 to 7 days. To induce megakaryocyte differentiation, the expanded CD34^+ cells were cultivated (5×10^4cells/ml) in media described above without cytokine mixture for 6 h. TPO (100 ng/ml) was added to induce differentiation. Expression of CD41 was analyzed by flow cytometry 15 days after TPO stimulation.
Recombinant TAT-fused HA-PRMT1 and HA-GFP (as a control) proteins were expressed in Escherichia coli and purified using Ni^+-nitrilotriacetic acid-agarose (Qiagen). Endotoxins were removed using Detoxi-Gel™ endotoxin removing gel (Pierce) according to the manufacturer's instructions. For differentiation study, recombinant TAT-fused proteins were added to CD34^+ cells 6 h before TPO stimulation and again at the time of TPO addition.
Both the recombinant TAT-conjugated HA-PRMT1 protein and the HA-GFP control protein were detected in cells by Western blot analysis (FIG. 6A). Erk was used as a loading control. Thrombopoietin (TPO) induces CD34^+ hematopoietic cells to undergo differentiation towards the megakaryocyte lineage as detected by the expression of the specific surface marker CD41. TPO-induced CD41 expression ranged from 45% to 76% in four different donors at day 15 after TPO treatment (Table 1).

## Nc1ncnc2c1ncn2C(C=O)OC(C=O)CO (centres unmarked) [AdOx, adenosine dialdehyde]
K562 cells [1]; AdOx added 8 hours before Ara-C treatment
  Ara-C-induced erythrocytic differentiation: dramatically suppressed
K562 cells [1]; AdOx alone, no Ara-C
  erythrocytic differentiation: did not influence differentiation

## CCCCCCCCCCCCCC(=O)O[C@@H]1[C@@H](C)[C@@]2(O)[C@@H](C=C(CO)C[C@]3(O)C(=O)C(C)=C[C@@H]23)[C@@H]2C(C)(C)[C@]12OC(C)=O [PMA, Phobol 12-myristate 13-acetate]
K562 cells [2]; E3-6 and parental K562 cells, 96 hours
  cells with characteristics of megakaryocytes: About 50%
K562 cells [2]; E3-6 cells, 96 hour
  adherent cells: about 30%

## TPO: Thrombopoietin, inducer of megakaryocyte differentiation of CD34+ cells (100 ng/ml)
[3]; donor 1
  CD41 expression: 62.3%
[3]; donor 2
  CD41 expression: 44.7%
[3]; donor 3
  CD41 expression: 68.2%
[3]; donor 4
  CD41 expression: 75.7%
